{"source": "patent US20240174727A1", "about": "“LONG-ACTING NATRIURETIC PEPTIDES AND USES THEREOF” (Eli Lilly and Company, priority 2022, published 2024)", "molecular_target": "T1, rat NPRA (Rattus norvegicus, UniProt P18910)", "T1 construct": "Full-Length cDNA Cloning and Generation of Cell Lines Overexpressing Natriuretic Peptide Receptors (NPRs); expressed in transfected cells; host or cells: Jump-in T-Rex HEK293 cells, pJTI R4 CMV-TO MCS pA vector, tetracycline induction", "T1 sequence (P18910 29-1057)": "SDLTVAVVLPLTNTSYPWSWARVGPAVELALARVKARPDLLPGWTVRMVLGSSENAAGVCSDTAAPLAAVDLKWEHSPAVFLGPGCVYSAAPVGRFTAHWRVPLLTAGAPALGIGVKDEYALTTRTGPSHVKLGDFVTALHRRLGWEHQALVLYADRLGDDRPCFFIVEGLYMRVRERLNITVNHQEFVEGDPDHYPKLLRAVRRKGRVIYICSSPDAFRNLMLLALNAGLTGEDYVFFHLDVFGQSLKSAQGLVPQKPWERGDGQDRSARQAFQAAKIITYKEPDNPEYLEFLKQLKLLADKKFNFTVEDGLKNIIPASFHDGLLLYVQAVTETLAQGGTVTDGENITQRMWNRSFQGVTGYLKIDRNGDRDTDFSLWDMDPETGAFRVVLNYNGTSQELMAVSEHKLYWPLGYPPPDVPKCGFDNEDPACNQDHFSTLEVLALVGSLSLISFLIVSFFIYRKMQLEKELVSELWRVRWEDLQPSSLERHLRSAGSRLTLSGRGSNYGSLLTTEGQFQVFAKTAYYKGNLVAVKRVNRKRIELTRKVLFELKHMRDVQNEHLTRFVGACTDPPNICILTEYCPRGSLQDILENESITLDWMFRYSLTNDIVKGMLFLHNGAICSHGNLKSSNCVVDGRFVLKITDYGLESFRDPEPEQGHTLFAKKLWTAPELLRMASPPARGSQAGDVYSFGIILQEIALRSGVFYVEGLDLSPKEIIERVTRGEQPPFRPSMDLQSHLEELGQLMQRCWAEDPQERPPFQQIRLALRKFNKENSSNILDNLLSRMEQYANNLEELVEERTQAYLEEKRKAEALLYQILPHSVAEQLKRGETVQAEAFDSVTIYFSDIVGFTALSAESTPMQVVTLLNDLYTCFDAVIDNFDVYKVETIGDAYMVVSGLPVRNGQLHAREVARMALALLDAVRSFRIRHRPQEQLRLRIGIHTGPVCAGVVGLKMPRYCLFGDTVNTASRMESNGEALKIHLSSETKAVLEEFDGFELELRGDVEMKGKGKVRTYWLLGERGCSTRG", "test": "Rat NPRA cGMP activity assay (HTRF) in HEK293 cells overexpressing NPRA", "assay_type": "cell-based", "method": "All sequences were verified by full-length sequencing performed by ACGT DNA Sequencing Services (Wheeling, IL). The target cDNA was cloned into pJTI R4 CMV-TO MCS pA vector and then co-transfected with pJT1R4 Int vector into Jump-in™ T-Rex™ HEK293 cells for mammalian inducible expression using Jump-in™ T-Rex™ HEK293 kit and Lipofectamine LTX and Plus Reagent following manufacturer's protocols, as briefly described below.\nJump-in™ T-Rex™ HEK293 cells were plated in a BioCOAT® poly-D-lysine coated 6-well plate (Becton Dickinson, cat no. 354413) at 1 million cells/well in 2 mL culture medium and incubated for 18 h at 37° C. and 5% CO2 to 50-70% confluence. A cDNA mix was made in a 50 mL tube by adding 1.5 μg target cDNA, 1.5 μg pJT1R4 Int vector, 3 μL Plus Reagent, and 300 μL Opti-MEM I sequentially into the tube. A reagent mix was made in a separate 50 mL tube by adding 7.5 μL Lipofectamine LTX into 300 μL Opti-MEM I. The mixtures were incubated for 5 min at room temperature. The cDNA mix was then transferred into the reagent mix, mixed well, and incubated for additional 30 min at room temperature. A 500 μL of cDNA/Lipofectamine complex was then transferred to the wells of the cell plate in which the culture medium was changed to 2 mL of transfection medium containing DMEM with 4.5 g/L D-glucose supplemented with 10% FBS-HI and 20 mM HEPES. Transfected cells were cultured for 48 h in an incubator at 37° C. and 5% CO2. A subclone or pool from each overexpressing cell line was maintained in culture medium with the addition of 2 mg/mL G418 sulfate for the clone selection based on its built-in resistance to G418 sulfate for at least 3 weeks with medium changed every 2-3 days.\nNPRs were overexpressed in T-Rex™ HEK293 cells following the induction with 300 ng/mL tetracycline in culture medium for 48 h. Induced cell lines in an exponential growth phase were treated with 0.05% trypsin-EDTA for a few seconds at room temperature, harvested in cell medium containing FBS to neutralize the trypsin, counted, and cryopreserved at the density of 2 million cells/mL in cell preservation solution containing FBS-HI with 5% DMSO. Cryopreserved cells were stored at −80° C. for a few days prior to transferring to a liquid nitrogen tank. Induced cell lines were then used for suspension assays to measure the activity of polypeptides to stimulate cGMP production in cGMP assays or for the preparation of cell membranes to measure the binding activity of polypeptides in competitive radioligand binding assays, as described below.\nTest polypeptides were added starting at 10 μM concentration and at 10-fold decreasing concentrations to obtain 8-point concentration-response curves (i.e., 10 μM to 1 pM). The quantity of cGMP generated was detected using HTRF® technology and normalized to maximum amount produced by 100 nM amidated rat ANP and the minimum amount produced by assay buffer. Detailed steps are outlined below.\nStock solutions of test polypeptides (2 mM) dissolved in DMSO were first diluted 100-fold in assay buffer containing HBSS with Ca^2+ and Mg^2+, 5 mM HEPES, 0.5 mM IBMX, and 0.1% BSA or 0.1% casein (pH 7.4). The polypeptides were further serially diluted in 1:10 dilution steps in assay buffer containing 0.1% BSA or 0.1% casein to generate 8-point 2× working stock solutions ranging from 20 μM to […].\nA 10 μL cell suspension containing 4000 cells was plated in Costar® half-area white opaque 96-well plates (Corning, cat no. 3693). Then 10 μL of assay buffer (basal activity), 200 nM of amidated rat ANP (maximum activity) or 2× working stock solutions of test polypeptides were transferred into the plate. Final concentration of DMSO in each well was 0.5%. The plate was shaken for 15 sec and then incubated for 40 min at room temperature.\nThe cGMP generated was measured using cGMP kit following the manufacturer's directions, as described below.", "note": "Like-named read-outs stand apart in the source and are kept apart here. Numbered stars: 1 amine (or outer) side, 2 acyl side, 3 side chain; on linkers, the order of the positions; unused ones are H or OH. Bridge positions count the residues as written; N and C are the ends. Square brackets hold non-standard residues; d marks the D form. * marks the point of attachment. C20 diacid = O=C(O)CCCCCCCCCCCCCCCCCCC(=O)*; γGlu = O=C(O)[C@H](CCC(=O)[*:2])N[*:1]; 4Pal = N[C@@H](Cc1ccncc1)C(=O)O; AEEA = NCCOCCOCC(=O)O; CH2 = C([*:1])[*:2]", "data": [{"molecule": "{C20 diacid-γGlu}-EKEKEKG[AEEA][AEEA][AEEA][AEEA]S[4Pal]RRSSCFGGRIDRIGHQSGLGCPSFRHGGKSSGAPPPS-NH2 (linker 18-34 via CH2) [Example 83]", "values": [{"measurement": "EC50", "setting": "assay buffer with 0.1% casein, read-out: cGMP Assay (EC50, pM) w/Casein rNPRA", "value": 16700, "unit": "pM"}]}, {"molecule": "CC[C@H](C)[C@@H]1NC(=O)[C@H](CCCNC(=N)N)NC(=O)[C@H](CC(=O)O)NC(=O)[C@H]([C@@H](C)CC)NC(=O)[C@H](CCCNC(=N)N)NC(=O)[C@H](CCCCN)NC(=O)CNC(=O)[C@H](Cc2ccccc2)NC(=O)[C@@H](NC(=O)[C@H](CO)NC(=O)[C@H](CO)NC(=O)[C@H](CCCNC(=N)N)NC(=O)[C@H](CCCNC(=N)N)NC(=O)[C@H](Cc2ccncc2)NC(=O)[C@H](CO)NC(=O)CCOCCOCCOCCOCCOCCOCCOCCOCCOCCOCCOCCOCCOCCOCCOCCOCCOCCOCCOCCOCCOCCOCCOCCOCCNC(=O)CNC(=O)[C@H](CCCCN)NC(=O)[C@H](CCC(=O)O)NC(=O)[C@H](CCCCN)NC(=O)[C@H](CCC(=O)O)NC(=O)[C@H](CCCCN)NC(=O)[C@H](CCC(=O)O)NC(=O)CC[C@H](NC(=O)CCCCCCCCCCCCCCCCCCC(=O)O)C(=O)O)CSCSC[C@@H](C(=O)N2CCC[C@H]2C(=O)N[C@@H](CO)C(=O)N[C@@H](Cc2ccccc2)C(=O)N[C@@H](CCCNC(=N)N)C(=O)N[C@@H](Cc2c[nH]cn2)C(=O)NCC(=O)N[C@@H](CO)C(=O)N2CCC[C@H]2C(=O)N[C@@H](CO)C(=O)N[C@@H](CO)C(=O)NCC(=O)N[C@@H](C)C(=O)N2CCC[C@H]2C(=O)N2CCC[C@H]2C(=O)N2CCC[C@H]2C(=O)N[C@@H](CO)C(N)=O)NC(=O)CNC(=O)[C@H](CC(C)C)NC(=O)CNC(=O)[C@H](CO)NC(=O)[C@H](Cc2ccc(O)cc2)NC(=O)[C@H](Cc2c[nH]cn2)NC(=O)CNC1=O", "note": "[Example 115]", "values": [{"measurement": "EC50", "setting": "cGMP Assay (EC50, pM) w/BSA rNPRA, assay buffer with 0.1% BSA", "value": 100000, "unit": "pM"}]}]}
